Reference: publication PMC7259601 (PLoS ONE, 2020)

Legend:
[1] = test system: FAD cofactor (in KDM1A or free); test: KDM1A binding analysis (FAD absorbance at 450 nm)
Method: Analysis of binding of inhibitors to KDM1A was as previously described [22](Yang et al., 2007) with minor modifications. The binding to FAD (present in the enzyme or free) was analyzed by measuring the decrease in absorbance at 450nm in a Tecan Infinite F200 microplate reader. Briefly, KDM1A enzyme was mixed with the inhibitor (without substrate) and the absorbance at 450nm was compared with the absorbance of the KDM1A enzyme without inhibitor. The reaction is monitored during 30 min and values used to calculate Kobs.
Absorbance at 450 nm was measured as described and Kobs was calculated following the equation: […]

[2] = test system: SAMP8 mice; test: Novel Object Recognition Test (NORT); format: in vivo, mouse
Method: (§1) Both male and female mice from the senescence accelerated strain SAMP8 and its control SAMR1 of different ages (see Table S3 for details) were used in these studies. Mice were breed in the animal facilities of the Pharmacy Faculty (University of Barcelona), maintained in a at 22 ± 2 °C controlled temperature in a 12 hr light / dark cycle (lights on at 8:00 am; 300 lux/0 lux) with ad libitum access to food (2018 TEKLAD, Harlan) and water. Male mice were housed individually (males) or in groups of 4-5 animals (females) in plastic colony boxes with a sawdust bedding material. […] SAMR1 mice treated with vehicle were included as a control. All drugs were administered via drinking water and diluted in vehicle. Drug concentration was calculated weekly in function of body weight and corrected in function of drinking water consumption. Cognitive function was evaluated by NORT, social behavior was evaluated by RI and anxiety and motor function were evaluated by EPM and OF. When necessary, animals were deeply anesthetized (80 mg/kg sodium pentobarbital) and brain samples (hippocampus, (prefrontal) cortex) were micro-dissected and processed according to the downstream analysis.
The protocol was performed as previously described. Briefly, animals were placed in a 90°- two-arm maze. Mice were habituated to the apparatus for 10 min during 3 consecutive days. On day 4, two identical novel objects (A+A or B+B) were placed at the end of each arm and animals performed a 10-min acquisition trial. A 10-min retention trial was carried out 2 hr after the acquisition trial with object A and B. Time exploring the novel (NO) and the familiar object (FO) was measured and a discrimination Index (DI) was defined as (NO-FO)/(NO+FO). In some experiments, a more restrictive threshold was applied and animals exploring less than 5 sec (NO+FO) were excluded from the analysis (Table S3).
Novel Object Recognition Test (NORT): Time exploring the novel (NO) and the familiar object (FO) was measured and a discrimination Index (DI) was defined as (NO-FO)/(NO+FO). In some experiments, a more restrictive threshold was applied and animals exploring less that 5 sec (NO+FO) were excluded from the analysis (Table S3). Open Field (OF): Locomotor activity was analyzed by video-tracking over the captured images using SMART® (v 2.5.21 (rat) or v3.0 (mice), PanLab, SLU, Spain).

[3] = test system: SAMP8 mice; test: Resident Intruder (RI) test, SAMP8; format: in vivo, mouse; details: 0.32 or 0.96 mg/kg/day for 5 weeks, male
Method: as §1
The protocol was modified from previously described. Briefly, the test subject (resident) was maintained in its home cage without bedding changes for one week. […] In mice the session was video-recorded for 20 min and social interaction (social interaction and rearings) and aggressive behavior (lateral threats, clinch attacks, keep-down behavior) were analyzed. […] In rats the session was video recorded for 15 min and social interaction (active and passive social interaction, number of evitations and time without social interaction) were analyzed. […] In addition, the time spent without social interaction was also measured.
Resident Intruder (RI): Mice were video-recorded for 20 min and social interaction and aggressive behavior were analyzed. Rats were video recorded for 15 min and social interaction (active and passive social interaction, number of evitations and time without social interaction) were analyzed.

[4] = test system: KDM1A; test: KDM1A target engagement in brain cortex (chemoprobe ELISA); format: in vivo, SAMP8 mice; details: end of 2 month treatment
Method: Native protein extracts of cells or tissues were obtained in presence of 25 nM OG-881 chemoprobe according the protocol described in Mascaró et al..
Luminescent ELISA: for quantification of total amount of KDM1A protein (TOTAL KDM1A), Luminunc Plates Maxisorp (NUNC; #436110) were coated with a monoclonal anti-KDM1A antibody (Abcam; #ab53269) at 2 µg/mL in PBS. For quantification of the fraction not bound to inhibitor (FREE KDM1A), plates were coated with streptavidin (Promega Biotech Ibérica; #Z7041) at 10 µg/mL in PBS. Coating was performed at 4°C O/N. Wells were washed 3 times in PBS, 0.1% Tween-20 and blocked with PBS-BSA 1% (Sigma; #A3059) for 2 hr. A KDM1A calibration curve of full length rKDM1A (Active Motif; #31334) diluted in PBS was included in each plate. Plates were then incubated 1 hr at RT and washed 5 times. […] Plates were centrifuged during 30 sec to 1,500 x g, shaken for 1 min at 100rpm and incubated inside the micropate reader (Infinite 200, Tecan) for 3 min at 25 °C. The relative luminescence units (RLU) readouts were acquired using a 1000 msec integration time and 150 msec settle time.
All assays were run as triplicate technical replicates (n = 3). After raw data processing (robust elimination of outliers according to Grubbs criteria and subtraction of blank signal on technical replicates), the target engagement was calculated as […]

In the case of Nc1nnc(CN[C@@H]2C[C@H]2c2ccc(OCc3ccccc3)cc2)o1 [ORY-2001, vafidemstat], the “binding to free FAD” value [1] is reported as “does not bind free FAD”, the “mode of inhibition of KDM1A (FAD cofactor)” value ([1]; absorbance spectrum and MALDI-TOF) is reported as “covalent binding” and the NORT discrimination capacity ([2]; 0.32 and 0.96 mg/kg/day (Exp3, Exp4)) is reported as “completely restored the discrimination capacity”. For the same molecule, the “NORT discrimination capacity, short treatment” value ([2]; 5 day treatment at 0.96 mg/kg/day (Exp5)) was “equally effective as a one month treatment”, the “NORT performance of aged SAMP8 mice” value ([2]; eight month old, treated 4 months (Exp7)) was “fully rescued the performance” and the “rescue of NORT discrimination deficit” value ([2]; lowest dose (0.11 mg/kg/day)) was ~ 50%. The latency to attack [3] was “tendency to increase the latency to attack”, the “number of attacks and clinch attacks” value [3] was “lowered to SAMR1 levels” and the “time in social interactions and number of rearings” value [3] was “No significant strain- or treatment-differences”. The “KDM1A target engagement in cortex” value [4] was “correlated with the observed functional effects on memory”.
